For data set [1], the system named is ovarian cancer and breast cancer. As to conditions: 250 mg/m^2/21 days; cited from earlier work.
The nature of data set [2]: Blood kinetics following multiple intravenous dose levels of Capxol. The class given is in vivo, rat. On the procedure: Blood was collected from the tail vein and the AUC0-24 was calculated. At 24 hours, blood samples were collected; extracted, and the extract injected on HPLC to determine the level of parent compound in the blood.
Data set [3] has as its system patients with breast cancer, non-Hodgkin's lymphoma or ovarian cancer. As to conditions: cited from earlier work.

Consider `CC(=O)O[C@H]1C(=O)[C@@]2(C)[C@H]([C@H](OC(=O)c3ccccc3)[C@]3(O)C[C@H](OC(=O)[C@H](O)[C@@H](NC(=O)c4ccccc4)c4ccccc4)C(C)=C1C3(C)C)[C@]1(OC(C)=O)CO[C@@H]1C[C@@H]2O` [paclitaxel], for which, in data set [1], the objective response rate was 35.9%. Also, the “level of parent compound in blood after 24 hours” value in data set [2] (9 mg/kg dose, given as Capxol) came out at 0.04 ppm. The “increase of parent compound level after 24 hours, factor” value in data set [2] (from the 9 mg/kg dose to the 148 mg/kg dose) is reported as 8.5. Further, the MTD in data set [3] (24 hour infusion, combined with cyclophosphamide 5,625 mg/m^2 and cisplatin 165 mg/m^2, AHPCS) is reported as 775 mg/m^2. The partial response in data set [3] (patients with breast cancer, combination with cyclophosphamide and cisplatin) is 54%.

The values above are taken from patent US8853260B2, “Formulations of pharmacological agents, methods for the preparation thereof and methods for the use thereof” (priority 1997, dated 2014).
